From ChEMBL document CHEMBL1154382, “Preliminary SAR analysis of novel antiproliferative N(6),5'-bis-ureidoadenosine derivatives” (2009)

Columns and labels:
Format in all cases: functional
Conditions in all cases: values are per cent of control
[1] = tested on: CCRF-CEM; test: Antiproliferative activity against human CCRF-CEM cells at 10 uM assessed as cell growth inhibition relative to control
[2] = tested on: HL-60(TB); test: Antiproliferative activity against human HL-60(TB) cells at 10 uM assessed as cell growth inhibition relative to control
[3] = tested on: K562; test: Antiproliferative activity against human K562 cells at 10 uM assessed as cell growth inhibition relative to control
[4] = tested on: MOLT-4; test: Antiproliferative activity against human MOLT4 cells at 10 uM assessed as cell growth inhibition relative to control
[5] = Antiproliferative activity against human […] cells at 10 uM assessed as cell growth inhibition relative to control
[6] = tested on: A549; test: Antiproliferative activity against human A549 cells at 10 uM assessed as cell growth inhibition relative to control
[7] = tested on: EKVX; test: Antiproliferative activity against human EKVX cells at 10 uM assessed as cell growth inhibition relative to control
[8] = tested on: PC-3; test: Antiproliferative activity against human PC3 cells at 10 uM assessed as cell growth inhibition relative to control
[9] = tested on: HOP-62; test: Antiproliferative activity against human HOP62 cells at 10 uM assessed as cell growth inhibition relative to control
[10] = tested on: HOP-92; test: Antiproliferative activity against human HOP92 cells at 10 uM assessed as cell growth inhibition relative to control
[11] = tested on: NCI-H226; test: Antiproliferative activity against human NCI-H226 cells at 10 uM assessed as cell growth inhibition relative to control
[12] = tested on: NCI-H23; test: Antiproliferative activity against human NCI-H23 cells at 10 uM assessed as cell growth inhibition relative to control
[13] = tested on: NCI-H322M; test: Antiproliferative activity against human NCI-H322M cells at 10 uM assessed as cell growth inhibition relative to control
[14] = tested on: NCI-H460; test: Antiproliferative activity against human NCI-H460 cells at 10 uM assessed as cell growth inhibition relative to control
[15] = tested on: NCI-H522; test: Antiproliferative activity against human NCI-H522 cells at 10 uM assessed as cell growth inhibition relative to control
[16] = tested on: COLO 205; test: Antiproliferative activity against human COLO205 cells at 10 uM assessed as cell growth inhibition relative to control
[17] = tested on: HCC 2998; test: Antiproliferative activity against human HCC2998 cells at 10 uM assessed as cell growth inhibition relative to control
[18] = tested on: HCT-116; test: Antiproliferative activity against human HCT116 cells at 10 uM assessed as cell growth inhibition relative to control
[19] = tested on: HCT-15; test: Antiproliferative activity against human HCT15 cells at 10 uM assessed as cell growth inhibition relative to control
[20] = tested on: HT-29; test: Antiproliferative activity against human HT-29 cells at 10 uM assessed as cell growth inhibition relative to control
[21] = tested on: KM12; test: Antiproliferative activity against human KM12 cells at 10 uM assessed as cell growth inhibition relative to control
[22] = tested on: SW-620; test: Antiproliferative activity against human SW620 cells at 10 uM assessed as cell growth inhibition relative to control
[23] = tested on: LOX IMVI; test: Antiproliferative activity against human LOXIMVI cells at 10 uM assessed as cell growth inhibition relative to control
[24] = tested on: Malme-3M; test: Antiproliferative activity against human MALME-3M cells at 10 uM assessed as cell growth inhibition relative to control
[25] = tested on: M14; test: Antiproliferative activity against human M14 cells at 10 uM assessed as cell growth inhibition relative to control
[26] = tested on: SK-MEL-2; test: Antiproliferative activity against human SK-MEL-2 cells at 10 uM assessed as cell growth inhibition relative to control
[27] = tested on: SK-MEL-28; test: Antiproliferative activity against human SK-MEL-28 cells at 10 uM assessed as cell growth inhibition relative to control
[28] = tested on: SK-MEL-5; test: Antiproliferative activity against human SK-MEL-5 cells at 10 uM assessed as cell growth inhibition relative to control
[29] = tested on: UACC-257; test: Antiproliferative activity against human UACC257 cells at 10 uM assessed as cell growth inhibition relative to control
[30] = tested on: UACC-62; test: Antiproliferative activity against human UACC62 cells at 10 uM assessed as cell growth inhibition relative to control
[31] = tested on: SF-268; test: Antiproliferative activity against human SF268 cells at 10 uM assessed as cell growth inhibition relative to control
[32] = tested on: SF-295; test: Antiproliferative activity against human SF295 cells at 10 uM assessed as cell growth inhibition relative to control
[33] = tested on: SF-539; test: Antiproliferative activity against human SF539 cells at 10 uM assessed as cell growth inhibition relative to control
[34] = tested on: SNB-19; test: Antiproliferative activity against human SNB19 cells at 10 uM assessed as cell growth inhibition relative to control
[35] = tested on: SNB-75; test: Antiproliferative activity against human SNB75 cells at 10 uM assessed as cell growth inhibition relative to control
[36] = tested on: U-251; test: Antiproliferative activity against human U251 cells at 10 uM assessed as cell growth inhibition relative to control
[37] = tested on: IGROV-1; test: Antiproliferative activity against human IGROV1 cells at 10 uM assessed as cell growth inhibition relative to control
[38] = tested on: OVCAR-3; test: Antiproliferative activity against human OVCAR-3 cells at 10 uM assessed as cell growth inhibition relative to control
[39] = tested on: OVCAR-4; test: Antiproliferative activity against human OVCAR4 cells at 10 uM assessed as cell growth inhibition relative to control
[40] = tested on: OVCAR-5; test: Antiproliferative activity against human OVCAR5 cells at 10 uM assessed as cell growth inhibition relative to control
[41] = tested on: OVCAR-8; test: Antiproliferative activity against human OVCAR8 cells at 10 uM assessed as cell growth inhibition relative to control
[42] = tested on: SK-OV-3; test: Antiproliferative activity against human SKOV3 cells at 10 uM assessed as cell growth inhibition relative to control
[43] = tested on: 786-0; test: Antiproliferative activity against human 786-0 cells at 10 uM assessed as cell growth inhibition relative to control
[44] = tested on: ACHN; test: Antiproliferative activity against human ACHN cells at 10 uM assessed as cell growth inhibition relative to control
[45] = tested on: CAKI-1; test: Antiproliferative activity against human Caki1 cells at 10 uM assessed as cell growth inhibition relative to control
[46] = tested on: RXF 393; test: Antiproliferative activity against human RXF393 cells at 10 uM assessed as cell growth inhibition relative to control
[47] = tested on: SN12C; test: Antiproliferative activity against human SN12C cells at 10 uM assessed as cell growth inhibition relative to control
[48] = tested on: TK-10; test: Antiproliferative activity against human TK10 cells at 10 uM assessed as cell growth inhibition relative to control
[49] = tested on: UO-31; test: Antiproliferative activity against human UO31 cells at 10 uM assessed as cell growth inhibition relative to control
[50] = tested on: BT-549; test: Antiproliferative activity against human BT549 cells at 10 uM assessed as cell growth inhibition relative to control
[51] = Antiproliferative activity against human Hs 578T cells at 10 uM assessed as cell growth inhibition relative to control
[52] = tested on: MCF7; test: Antiproliferative activity against human MCF7 cells at 10 uM assessed as cell growth inhibition relative to control
[53] = tested on: MDA-MB-231; test: Antiproliferative activity against human MDA-MB-231 cells at 10 uM assessed as cell growth inhibition relative to control
[54] = tested on: MDA-MB-468; test: Antiproliferative activity against human MDA-MB-468 cells at 10 uM assessed as cell growth inhibition relative to control
[55] = tested on: T47D; test: Antiproliferative activity against human T47D cells at 10 uM assessed as cell growth inhibition relative to control
[56] = tested on: DU-145; test: Antiproliferative activity against human DU145 cells at 10 uM assessed as cell growth inhibition relative to control

Question: Which growth, % of control at 10 µM [1] does the source give for `CNC(=O)NC[C@H]1O[C@@H](n2cnc3c(NC(=O)Nc4ccccc4)ncnc32)[C@H](O[Si](C)(C)C(C)(C)C)[C@@H]1O[Si](C)(C)C(C)(C)C` here?
Answer: 43%

Question: And the growth, % of control at 10 µM [2]?
Answer: 24%

Question: And the growth, % of control at 10 µM [3]?
Answer: 34%

Question: What about the growth, % of control at 10 µM [4] of the same molecule?
Answer: 24%

Question: And the growth, % of control at 10 µM [5]?
Answer: 20%

Question: And the growth, % of control at 10 µM [6]?
Answer: 23%

Question: And the growth, % of control at 10 µM [7]?
Answer: 23%

Question: What about the growth, % of control at 10 µM [8] of the same molecule?
Answer: 8%

Question: And the growth, % of control at 10 µM [9]?
Answer: 62%

Question: And the growth, % of control at 10 µM [10]?
Answer: -3%

Question: And the growth, % of control at 10 µM [11]?
Answer: 49%

Question: And the growth, % of control at 10 µM [12]?
Answer: 36%

Question: And the growth, % of control at 10 µM [13]?
Answer: 87%

Question: What about the growth, % of control at 10 µM [14] of the same molecule?
Answer: -7%

Question: And the growth, % of control at 10 µM [15]?
Answer: 46%

Question: And the growth, % of control at 10 µM [16]?
Answer: -100%

Question: And the growth, % of control at 10 µM [17]?
Answer: -1%

Question: And the growth, % of control at 10 µM [18]?
Answer: 0%

Question: What about the growth, % of control at 10 µM [19] of the same molecule?
Answer: 21%

Question: What about the growth, % of control at 10 µM [20] of the same molecule?
Answer: -68%

Question: What about the growth, % of control at 10 µM [21] of the same molecule?
Answer: -4%

Question: What about the growth, % of control at 10 µM [22] of the same molecule?
Answer: 36%

Question: And the growth, % of control at 10 µM [23]?
Answer: 13%

Question: What about the growth, % of control at 10 µM [24] of the same molecule?
Answer: 49%

Question: And the growth, % of control at 10 µM [25]?
Answer: 33%

Question: And the growth, % of control at 10 µM [26]?
Answer: 57%

Question: And the growth, % of control at 10 µM [27]?
Answer: 60%

Question: And the growth, % of control at 10 µM [28]?
Answer: 48%

Question: What about the growth, % of control at 10 µM [29] of the same molecule?
Answer: 43%

Question: What about the growth, % of control at 10 µM [30] of the same molecule?
Answer: 42%

Question: And the growth, % of control at 10 µM [31]?
Answer: 36%

Question: What about the growth, % of control at 10 µM [32] of the same molecule?
Answer: 45%

Question: And the growth, % of control at 10 µM [33]?
Answer: 33%

Question: What about the growth, % of control at 10 µM [34] of the same molecule?
Answer: 76%

Question: And the growth, % of control at 10 µM [35]?
Answer: 46%

Question: And the growth, % of control at 10 µM [36]?
Answer: 17%

Question: And the growth, % of control at 10 µM [37]?
Answer: 53%

Question: What about the growth, % of control at 10 µM [38] of the same molecule?
Answer: -29%

Question: And the growth, % of control at 10 µM [39]?
Answer: 30%

Question: And the growth, % of control at 10 µM [40]?
Answer: 69%

Question: What about the growth, % of control at 10 µM [41] of the same molecule?
Answer: 33%

Question: What about the growth, % of control at 10 µM [42] of the same molecule?
Answer: 78%

Question: And the growth, % of control at 10 µM [43]?
Answer: 17%

Question: And the growth, % of control at 10 µM [44]?
Answer: 21%

Question: What about the growth, % of control at 10 µM [45] of the same molecule?
Answer: 60%

Question: What about the growth, % of control at 10 µM [46] of the same molecule?
Answer: -37%

Question: And the growth, % of control at 10 µM [47]?
Answer: -79%

Question: And the growth, % of control at 10 µM [48]?
Answer: 34%

Question: And the growth, % of control at 10 µM [49]?
Answer: 48%

Question: What about the growth, % of control at 10 µM [50] of the same molecule?
Answer: 40%

Question: What about the growth, % of control at 10 µM [51] of the same molecule?
Answer: 61%

Question: And the growth, % of control at 10 µM [52]?
Answer: 0%

Question: And the growth, % of control at 10 µM [53]?
Answer: 38%

Question: And the growth, % of control at 10 µM [54]?
Answer: 36%

Question: What about the growth, % of control at 10 µM [55] of the same molecule?
Answer: 14%

Question: What about the growth, % of control at 10 µM [56] of the same molecule?
Answer: 52%
